Consider six compounds from PMC6154603, “Study on the Rationality for Antiviral Activity of Flos Lonicerae Japonicae-Fructus Forsythiae Herb Couple Preparations Improved by Chito-Oligosaccharide via Integral Pharmacokinetics” (Molecules : A Journal of Synthetic Chemistry and Natural …, 2017).

Data set [1] has as its system influenza A virus (H1N1). The experiment in a line: microbe, parasite or virus in culture. The format is cell-based. As to conditions: for IC50: Influenza A virus, H1N1, MDCK, tested 0.0625-1.0000 mM, unit inferred, read-out: IC50 (anti-viral activity).
Data set [2] can be described thus: Pharmacokinetics of caffeic acid derivatives after oral administration of the FLJ-FF herb couple. As to conditions: rat, in vivo. Set-up: species or system rats. The procedure: The pharmacokinetics of caffeic acid derivatives in the FLJ-FF herb couple was studied in our previous study. Integral concentrations at each time point for the eight components were calculated based on the AUC-weighting method. The weighting coefficient for each component was calculated using Equations (4) and (5). […] AUC was determined using GraphPad Prism for Windows, version 5 (Graph Pad Software Inc., San Diego, CA, USA). […] Subsequently, plasma was prepared by centrifugation at 1816× g for 7 min and immediately analyzed or stored at −70 °C for further analysis after being mixed with 10 μL of 5% formic acid. The treatment and UPLC-ESI-MS/MS analysis for samples have been studied previously.

The subject of data set [3] is Caco-2 cell. The experiment in a line: In vitro Caco-2 cell transport model. As to conditions: Shuang-Huang-Lian, with 0.1% (w/v) of COS vs control. The format is in vitro ADME, human. The text has this: The protocol of Caco-2 cell study was shown previously.
Background: Caco-2 monolayers are a common model of the intestinal barrier.

Data set [4] can be described thus: In vivo pharmacokinetic study of FLJ-FF herb couple preparations with or without COS. As to conditions: rat, po. More on the design: species or system rats. The text has this:
The rats were administrated product A and A4 at the dosages of at the dosage of 32 g raw medicine per kilogram, product B and B4 at the dosage of 64 g raw medicine per kilogram, product C and C4 at the dosage of 48 g raw medicine per kilogram, and product D and D4 at the dosage of 160 g raw medicine per kilogram, respectively.

The test system of data set [5] is influenza virus strain, A/PR8/34 (H1N1). The format is cell-based. As to conditions: compared with PBS group; ribavirin 20 mg/kg orally as positive control; Figure S1.

Turning to `O=C(C=Cc1ccc(O)c(O)c1)OC1CC(O)(C(=O)O)CC(O)C1OC(=O)C=Cc1ccc(O)c(O)c1` (stereo not drawn) [3,4-dicaffeoylquinic acid], in data set [1], the IC50 was 401 µM. In data set [2], this compound had an AUC(0-inf) of 213 ng·h/mL, an AUC(0-t) of 141 ng·h/mL, a Cmax of 66.7 ± 15.4 ng/mL and an MRT last of 7.6 h. Besides, in data set [2], the Tmax is 0.167 h and the half-life stood at 9.18 ± 0.649 h. Further, the “highest Papp-value increase” value in data set [3] stood at 5.86 fold.
`O=C(/C=C/c1ccc(O)c(O)c1)O[C@@H]1C[C@](O)(C(=O)O)C[C@@H](OC(=O)/C=C/c2ccc(O)c(O)c2)[C@H]1O` [3,5-dicaffeoylquinic acid]: the IC50 in data set [1] was determined as 393 µM. In data set [2], the AUC(0-inf) is 54.2 ng·h/mL, the AUC(0-t) is 53.1 ng·h/mL, the Cmax was determined as 70.5 ± 28.1 ng/mL and the MRT last is 6.39 h. In data set [2], the Tmax was 0.1667 ± 0 h and the half-life was 5.95 ± 0.559 h. Moreover, the “highest Papp-value increase” value in data set [3] came out at 8.66 fold. Further, the AUC in data set [4] (AUC (Control)) is 57.7 ng·h/mL.
As to `O=C(/C=C/c1ccc(O)c(O)c1)O[C@@H]1C[C@](O)(C(=O)O)C[C@@H](O)[C@H]1O` [Chlorogenic acid], in data set [1], the “antiviral activity, folds lower than that of forsythoside A” value was 2.47 folds and the IC50 was 754 µM. In data set [2], the AUC(0-inf) is 3160 ng·h/mL, the AUC(0-t) is 3220 ng·h/mL, the highest level (Cmax) was 2500 ± 438 ng/mL and the MRT last is 4.74 h. The same compound came in with a half-life in data set [2] of 3.9 ± 0.699 h. Besides, in data set [4] (25 mg/kg, AUC (Absorption Enhancer)), the AUC was 968 ng·h/mL. The compound also showed an AUC in data set [4] (AUC (Control)) of 638 ng·h/mL.
With `O=C(C=Cc1ccc(O)c(O)c1)OC1C(O)CC(O)(C(=O)O)CC1O` (stereo not drawn) [Cryptochlorogenic acid, cryptochlorogenic acid], the IC50 in data set [1] was determined as 735 µM. Further, in data set [2], the AUC(0-inf) is 726 ng·h/mL, the AUC(0-t) was 713 ng·h/mL, the concentration peaked (Cmax) at 950 ± 201 ng/mL and the MRT last was 4.84 h. Moreover, in data set [2], the Tmax is 0.167 h and the half-life amounted to 4.64 ± 1.03 h. Further, the “highest Papp-value increase” value in data set [3] is 3.13 fold.
For the compound `O=C(C=Cc1ccc(O)c(O)c1)OC1CC(O)(C(=O)O)CC(O)C1O` (stereo not drawn) [Neochlorogenic acid], the IC50 in data set [1] turned out to be 722 µM. Moreover, in data set [2], the AUC(0-inf) was 715 ng·h/mL, the AUC(0-t) is 579 ng·h/mL, the Cmax was 575 ± 170 ng/mL and the MRT last was 5.3 h. Moreover, in data set [2], the Tmax was 0.167 h and the half-life was 3.49 ± 0.423 h.
As to `NC(=O)c1ncn([C@@H]2O[C@H](CO)[C@@H](O)[C@H]2O)n1` [ribavirin], the “inhibition rate on influenza virus” value in data set [5] is recorded as “remarkable increase”.

A word on the IC50: it is the concentration that inhibits the measured activity by half. One may read the AUC(0-inf) as the area under the concentration-time curve extrapolated to infinity. A low value points to less exposure. By AUC(0-t) is commonly meant the area under the concentration-time curve up to a stated or last time point. One may read the Cmax as the peak of the concentration-time curve. One may read the MRT last as the average time that molecules of a dose stay in the body. One may read the Tmax as the time at which the peak concentration occurs. What is called half-life is how long it takes for the measured level to halve. Lower therefore signals rapid decline. For orientation: AUC means concentration integrated over time.
